Experiments:
[1] = tested on: Septoria tritici; assay: Septoria tritici (leaf blotch), liquid culture growth inhibition in nutrient broth; type: cell-based; conditions: Zymoseptoria tritici; 200 ppm; PDB broth, 24 C; inhibition of growth determined photometrically after 72 hrs; read-out: control of fungal infection, Septoria tritici
[2] = tested on: Erysiphe graminis f.sp. tritici; assay: Erysiphe graminis f.sp. tritici (wheat powdery mildew), wheat leaf segment assay, preventive; type: in vivo; conditions: Blumeria graminis, foliar, 96 h; 200 ppm; wheat leaf segments; assessed four days after inoculation; read-out: control of fungal infection, Etysiphe graminis f.sp. tritici
[3] = tested on: Plasmopara viticola; assay: Plasmopara viticola (downy mildew of grapevine), grapevine leaf disk assay, preventive; type: in vivo; conditions: foliar, 168 h, 200 ppm, grapevine leaf disks, assessed seven days after inoculation, read-out: control of fungal infection, Plasmopara viticola
[4] = tested on: Phytophthora infestans; assay: whole plant or invertebrate; type: in vivo; conditions: in Solanum lycopersicum, foliar, 96 h, read-out: control of fungal infection, Phytophthora infestans
[5] = tested on: Pythium ultimum; assay: Pythium ultimum (Damping off), liquid culture growth inhibition in potato dextrose broth; type: cell-based; conditions: Globisporangium ultimum; 20 ppm; potato dextrose broth, 24° C.; inhibition of growth determined photometrically after 48 hours; read-out: control of fungal infection, Pythium ultimum
[6] = tested on: Pyricularia oryzae; assay: whole plant or invertebrate; type: in vivo; conditions: foliar, 96 h, read-out: control of fungal infection, Pyricularia oryzae
[7] = tested on: Septoria nodorum; assay: Septoria nodorum (wheat glume blotch), wheat leaf segment assay, preventive; type: in vivo; conditions: Parastagonospora nodorum, foliar, 96 h; 200 ppm; wheat leaf segments; assessed four days after inoculation; read-out: control of fungal infection, Septoria nodorum
[8] = tested on: Puccinia recondita f.sp. tritici; assay: Puccinia recondita f.sp. tritici (wheat brown rust), wheat leaf segment assay, preventive; type: in vivo; conditions: foliar, 216 h, 200 ppm, wheat leaf segments, assessed nine days after inoculation, read-out: control of fungal infection, Puccinia recondite f.sp. tritici
[9] = tested on: Fusarium culmorum; assay: Fusarium culmorum (root rot), liquid culture growth inhibition in nutrient broth; type: cell-based; conditions: PDB broth, 24 C, inhibition of growth determined photometrically after 48 hrs, read-out: control of fungal infection, Fusarium culmorum
Outline: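 Fusarium culmorum conidia from cryogenic storage were mixed into potato dextrose broth and added to compound pre-dispensed from DMSO (diluted in 0.025% Tween20). Incubated at 24 C in the dark; growth inhibition read photometrically after 48 hrs.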

[10] = tested on: Botrytis cinerea; assay: Botrytis cinerea (grey mould), bean leaf disk assay, preventive; type: in vivo; conditions: foliar, 96 h, 200 ppm, bean leaf disks, assessed four days after inoculation, read-out: control of fungal infection, Botrytis cinerea

SMILES: CON=CC(C)(C)NC(=O)C(Oc1ccc2ncc(Br)cc2c1)SC (stereo not shown) [Compound No. 15, 2-(3-Bromo-quinolin-6-yloxy)-N-(2-methoxyimino-1,1-dimethyl-ethyl)-2-methylsulfanyl-acetamide]
- inhibition of growth at 200 ppm [1]: ≥ 60%
- pest or weed control at 200 ppm [2]: ≥ 60%
- pest or weed control at 200 ppm [3]: ≥ 60%
- pest or weed control at 200 ppm [4]: ≥ 60%
- inhibition of growth at 20 ppm [5]: ≥ 60%
- pest or weed control at 200 ppm [6]: ≥ 60%

SMILES: C#Cc1cnc2c(Cl)cc(OC(SC)C(=O)NC(C)(C)C=NOCC)cc2c1 (stereo not shown) [Compound No. 116, 2-(8-Chloro-3-ethynyl-quinolin-6-yloxy)-N-(2-ethoxyimino-1,1-dimethyl-ethyl)-2-methylsulfanyl-acetamide]
- pest or weed control at 200 ppm [7]: ≥ 60%
- inhibition of growth at 200 ppm [1]: ≥ 60%
- pest or weed control at 200 ppm [3]: ≥ 60%
- pest or weed control at 200 ppm [4]: ≥ 60%
- inhibition of growth at 20 ppm [5]: ≥ 60%
- pest or weed control at 200 ppm [6]: ≥ 60%

SMILES: C=CCON=CC(C)(C)NC(=O)C(Oc1cc(C)c2ncc(I)cc2c1)SC (stereo not shown) [Compound No. 45, N-(2-Allyloxyimino-1,1-dimethyl-ethyl)-2-(3-iodo-8-methyl-quinolin-6-yloxy)-2-methylsulfanyl-acetamide]
- pest or weed control at 200 ppm [7]: ≥ 60%
- inhibition of growth at 200 ppm [1]: ≥ 60%
- pest or weed control at 200 ppm [2]: ≥ 60%
- pest or weed control at 200 ppm [3]: ≥ 60%
- pest or weed control at 200 ppm [4]: ≥ 60%
- pest or weed control at 200 ppm [6]: ≥ 60%

SMILES: CON=CC(C)(C)NC(=O)C(OC)Oc1ccc2ncc(I)cc2c1 (stereo not shown) [Compound No. 72, 2-(3-Iodo-quinolin-6-yloxy)-2-methoxy-N-(2-methoxyimino-1,1-dimethyl-ethyl)-acetamide]
- pest or weed control at 200 ppm [7]: ≥ 60%
- inhibition of growth at 200 ppm [1]: ≥ 60%
- pest or weed control at 200 ppm [2]: ≥ 60%
- pest or weed control at 200 ppm [3]: ≥ 60%
- pest or weed control at 200 ppm [4]: ≥ 60%
- melting point: 101 to 103 °C
- inhibition of growth at 20 ppm [5]: ≥ 60%
- pest or weed control at 200 ppm [8]: ≥ 60%
- inhibition of growth at 200 ppm [9]: ≥ 60%
- pest or weed control at 200 ppm [10]: ≥ 60%

SMILES: C#Cc1cnc2ccc(OC(SC)C(=O)NC(C)(C)C=NOCC=C)cc2c1 (stereo not shown) [Compound No. 120, N-(2-Allyloxyimino-1,1-dimethyl-ethyl)-2-(3-ethynyl-quinolin-6-yloxy)-2-methylsulfanyl-acetamide]
- pest or weed control at 200 ppm [7]: ≥ 60%
- inhibition of growth at 200 ppm [1]: ≥ 60%
- pest or weed control at 200 ppm [2]: ≥ 60%
- pest or weed control at 200 ppm [3]: ≥ 60%
- pest or weed control at 200 ppm [4]: ≥ 60%
- inhibition of growth at 20 ppm [5]: ≥ 60%
- pest or weed control at 200 ppm [8]: ≥ 60%
- pest or weed control at 200 ppm [6]: ≥ 60%

SMILES: CSC(Oc1cc(C)c2ncc(Br)cc2c1)C(=O)NC(C)(C)C=NO (stereo not shown) [Compound No. 31, 2-(3-Bromo-8-methyl-quinolin-6-yloxy)-N-(2-hydroxyimino-1,1-dimethyl-ethyl)-2-methylsulfanyl-acetamide]
- pest or weed control at 200 ppm [2]: ≥ 60%
- pest or weed control at 200 ppm [3]: ≥ 60%
- pest or weed control at 200 ppm [4]: ≥ 60%
- inhibition of growth at 20 ppm [5]: ≥ 60%
- inhibition of growth at 200 ppm [9]: ≥ 60%
- pest or weed control at 200 ppm [6]: ≥ 60%

SMILES: C#Cc1cnc2c(Cl)cc(OC(SC)C(=O)NC(C)(C)C=NOCC=C)cc2c1 (stereo not shown) [Compound No. 117, N-(2-Allyloxyimino-1,1-dimethyl-ethyl)-2-(8-chloro-3-ethynyl-quinolin-6-yloxy)-2-methylsulfanyl-acetamide]
- pest or weed control at 200 ppm [7]: ≥ 60%
- inhibition of growth at 200 ppm [1]: ≥ 60%
- pest or weed control at 200 ppm [2]: ≥ 60%
- pest or weed control at 200 ppm [3]: ≥ 60%
- pest or weed control at 200 ppm [4]: ≥ 60%
- inhibition of growth at 20 ppm [5]: ≥ 60%
- pest or weed control at 200 ppm [8]: ≥ 60%
- pest or weed control at 200 ppm [6]: ≥ 60%

SMILES: C#Cc1cnc2ccc(OC(SC)C(=O)NC(C)(C)C=NOCC)cc2c1 (single isomer, unassigned) [Compound No. 119, N-(2-Ethoxyimino-1,1-dimethyl-ethyl)-2-(3-ethynyl-quinolin-6-yloxy)-2-methylsulfanyl-acetamide]
- pest or weed control at 200 ppm [7]: ≥ 60%
- inhibition of growth at 200 ppm [1]: ≥ 60%
- pest or weed control at 200 ppm [2]: ≥ 60%
- pest or weed control at 200 ppm [3]: ≥ 60%
- pest or weed control at 200 ppm [4]: ≥ 60%
- inhibition of growth at 20 ppm [5]: ≥ 60%
- pest or weed control at 200 ppm [8]: ≥ 60%
- pest or weed control at 200 ppm [6]: ≥ 60%

SMILES: CCON=CC(C)(C)NC(=O)C(Oc1ccc2ncc(Br)cc2c1)SC (stereo not shown) [Compound No. 16, 2-(3-Bromo-quinolin-6-yloxy)-N-(2-ethoxyimino-1,1-dimethyl-ethyl)-2-methylsulfanyl-acetamide]
- pest or weed control at 200 ppm [2]: ≥ 60%
- pest or weed control at 200 ppm [4]: ≥ 60%
- inhibition of growth at 20 ppm [5]: ≥ 60%
- pest or weed control at 200 ppm [6]: ≥ 60%

SMILES: CCON=CC(C)(C)NC(=O)C(Oc1cc(C)c2ncc(Br)cc2c1)SC (stereo not shown) [Compound No. 27, 2-(3-bromo-8-methyl-quinolin-6-yloxy)-N-(2-ethoxyimino-1,1-dimethyl-ethyl)-2-methylsulfanyl-acetamide]
- inhibition of growth at 200 ppm [1]: ≥ 60%
- pest or weed control at 200 ppm [4]: ≥ 60%
- pest or weed control at 200 ppm [6]: ≥ 60%

SMILES: C#Cc1cnc2ccc(OC(SC)C(=O)NC(C)(C)C=NOCC)cc2c1 (stereo not shown) [Compound No. 118, N-(2-Ethoxyimino-1,1-dimethyl-ethyl)-2-(3-ethynyl-quinolin-6-yloxy)-2-methylsulfanyl-acetamide]
- pest or weed control at 200 ppm [7]: ≥ 60%
- inhibition of growth at 200 ppm [1]: ≥ 60%
- pest or weed control at 200 ppm [2]: ≥ 60%
- pest or weed control at 200 ppm [3]: ≥ 60%
- pest or weed control at 200 ppm [4]: ≥ 60%
- inhibition of growth at 20 ppm [5]: ≥ 60%
- pest or weed control at 200 ppm [8]: ≥ 60%
- pest or weed control at 200 ppm [6]: ≥ 60%

From patent publication US8507509B2, “Saturated and insaturated bi- or tricyclic aryloxyacetamine derivatives and their use as fungicides” (Syngenta Crop Protection LLC, priority 2007, dated 2013)
